Assay results taken from patent publication US11919862B1, “6′-(4-bromophenyl)-2′-ethoxy-3,4′-bipyridine-3′-carbonitrile as an antioxidant” (KING FAISAL UNIVERSITY, priority 2023, dated 2024).

Experiment: DPPH (2,2-diphenyl-1-picrylhydrazyl) in vitro antioxidant / radical scavenging test
Format: biochemical
Conditions: 517 nm; for Inhibition: radical scavenging inhibition of DPPH, vitamin C as reference
Protocol: A new polyfunctionalized pyridine 6′-(4-bromophenyl)-2′-ethoxy-3,4′-bipyridine-3′-carbonitrile (4) was investigated for its antioxidant activity by 2,2-diphenyl-1-picrylhydrazyl (DPPH) in vitro tests that employ vitamin C as the positive control. The product 4 magnitude estimated the antioxidant potential to vanish the DPPH radical distinctive colors at 517 nm. […] The radical scavenging inhibition was calculated using the following equation: […]

| SMILES | antioxidant potential compared to vitamin C (DPPH in vitro test) | Inhibition |
| --- | --- | --- |
| CCOc1nc(-c2ccc(Br)cc2)cc(-c2cccnc2)c1C#N [Product 4, 6′-(4-bromophenyl)-2′-ethoxy-3,4′-bipyridine-3′-carbonitrile] | high potential as an antioxidant | 48% |
| O=C1O[C@H]([C@@H](O)CO)C(O)=C1O [vit c, vitamin C, reference compound] |  | 74% |
